The term Tmax denotes the time from dosing to the highest level. The term inhibition denotes the drop in the measured response relative to a control, in per cent.

The text below walks through data of patent publication EP4775574A1, “FURAN RING-CONTAINING COMPOUND, PHARMACEUTICAL COMPOSITION THEREOF, AND USE THEREOF” (Wuhan Xirui Pharmaceutical Technology Co., Ltd, priority 2023, dated 2025).

Series [1] in a line: Pharmacokinetic determination in SD rats. Format: in vivo. To be noted: rat, po, gavage 10 mg/kg, plasma; for half-life: read-out: Half-life t1/2 (converted); for Cmax: read-out: Peak concentration Cmax; for Tmax: read-out: Time to peak Tmax. Here is the method:
SD rats were used as test animals to study the pharmacokinetic behavior in rat plasma after oral administration of the compound example of the present disclosure at a dose of 10 mg/kg.
Male SPF-grade SD rats, with body weight (200 ± 20) g.
Drug preparation: The drug concentration was prepared as 1 mg/mL, and the preparation solvent was Tween80 + 0.5% MC (v/v 1:99).
Male SPF-grade SD rats were administered by gavage after adaptive feeding for 3-4 days, with an administration dose of 10 mg/kg and an administration volume of 10 mL/kg.
Blood samples were collected from rats before administration (0 h) and after administration at 0.5 h, 1 h, 1.5 h, 2 h, 3 h, 4 h, 6 h, 8 h, 10 h, 12 h, and 24 h. Blood, approximately 0.2 mL, was collected by retro-orbital puncture and placed into EDTA-K2 anticoagulant tubes with labels. After blood collection, the tubes were gently and completely inverted three times to mix with the anticoagulant. The samples were then immediately placed in an ice-water bath and centrifuged at 4500 rpm for 10 min at 4°C. After centrifugation, the plasma was promptly aliquoted into EP tubes with corresponding labels and stored in a -80°C freezer.
After administration, 20 µL of rat plasma was taken and placed into a 96-deep-well plate pre-filled with 20 µL of internal standard working solution. Methanol (400 µL) as the precipitating agent was added, vortexed for 10 min, and centrifuged at 4000 rpm for 15 min. A supernatant of 200 µL was transferred into another 96-deep-well plate pre-filled with 200 µL of ultrapure water, vortexed for 5 min, and centrifuged at 4000 rpm for 3 min. A supernatant of 5 µL was taken for LC-MS/MS analysis of plasma drug concentration.
The main pharmacokinetic parameters were calculated by WinNonlin 7.0, and the pharmacokinetic experimental results of rats are shown in Table 4 below. Table 4: Pharmacokinetic experimental results of rats

In series [2] the target is Nav1.1 (Homo sapiens, UniProt P35498). The experiment in a line: Sodium channel selectivity test, patch-clamp, Nav1.1. The series is classed as cell-based. To be noted: read-out: Nav1.1 Inhibition rate (%). An excerpt: (§1) Test Example 3: Selectivity test of the compounds of the present disclosure on sodium channels • 1. Experimental objective: The effects of the compounds on the current of the voltage-gated sodium channel (NaV) subtypes 1.1-1.7 were detected by patch-clamp technique • 2. Experimental materials and instruments • 2.1 Cell lines: CHO/HEK293 cell lines stably expressing Nav1.1-1.7 sodium channels, constructed in-house by the laboratory of Beijing ICE Bioscience Co., Ltd., (Reference: Jarvis MF, Honore P, Shieh CC, Chapman M, Joshi S, Zhang XF, Kort M, Carroll W, Marron B, Atkinson R, Thomas J, Liu D, Krambis M, Liu Y, McGaraughty S, Chu K, Roeloffs R, Zhong C, Mikusa JP, Hernandez G, Gauvin D, Wade C, Zhu C, Pai M, Scanio M, Shi L, Drizin I, Gregg R, Matulenko M, Hakeem A, Gross M, Johnson M, Marsh K, Wagoner PK, Sullivan JP, Faltynek CR, Krafte DS. A-803467, a potent and selective Nav1.8 sodium channel blocker, attenuates neuropathic and inflammatory pain in the rat. Proc Natl Acad Sci U S A. 2007 May 15;104(20):8520-5. doi: 10.1073/pnas.0611364104. Epub 2007 May 2. PMID: 17483457; PMCID: PMC1895982.), gene information Nav1.1: NM_006920; Nav1.2: NM_001040142; Nav1.3: NM_006922; Nav1.4: NM_000334; Nav1.5: NM198056; Nav1.6: NM014191; Nav1.7: […]. • 2.2 Compounds: Dissolved in DMSO, with sample concentration prepared at 30 µM. • 3. Experimental methods • 3.1 Cell culture • (1) Maintenance medium: CHO cells were cultured in HAM'S/F-12 medium containing 10% fetal bovine serum, 100 µg/mL Zeocin, and 10 µg/mL Blasticidin, under conditions of 37°C incubation temperature and 5% carbon dioxide concentration. HEK-293 cells were cultured in DMEM medium containing 10% fetal bovine serum and 800 µg/mL G418; the culture temperature was 37°C, and the carbon dioxide concentration was 5%. • (2) Cell passage: The old medium was removed, and the cells were washed once with PBS, then 1 mL of 0.25%-Trypsin-EDTA solution was added and incubated at 37°C for approximately 1.5 min. When the cells were detached from the bottom of the dish, about 5 mL of preheated complete medium at 37°C was added. […]
A general note: The patch-clamp technique gives a direct electrical read-out from membranes.

For series [3], the target named is Nav1.3 (Homo sapiens, UniProt Q9NY46). The series is described as follows: Sodium channel selectivity test, patch-clamp, Nav1.3. Format: cell-based. To be noted: read-out: Nav1.3 Inhibition rate (%).
Sequence of Nav1.3 (Q9NY46 1-2000 isoform Q9NY46-3): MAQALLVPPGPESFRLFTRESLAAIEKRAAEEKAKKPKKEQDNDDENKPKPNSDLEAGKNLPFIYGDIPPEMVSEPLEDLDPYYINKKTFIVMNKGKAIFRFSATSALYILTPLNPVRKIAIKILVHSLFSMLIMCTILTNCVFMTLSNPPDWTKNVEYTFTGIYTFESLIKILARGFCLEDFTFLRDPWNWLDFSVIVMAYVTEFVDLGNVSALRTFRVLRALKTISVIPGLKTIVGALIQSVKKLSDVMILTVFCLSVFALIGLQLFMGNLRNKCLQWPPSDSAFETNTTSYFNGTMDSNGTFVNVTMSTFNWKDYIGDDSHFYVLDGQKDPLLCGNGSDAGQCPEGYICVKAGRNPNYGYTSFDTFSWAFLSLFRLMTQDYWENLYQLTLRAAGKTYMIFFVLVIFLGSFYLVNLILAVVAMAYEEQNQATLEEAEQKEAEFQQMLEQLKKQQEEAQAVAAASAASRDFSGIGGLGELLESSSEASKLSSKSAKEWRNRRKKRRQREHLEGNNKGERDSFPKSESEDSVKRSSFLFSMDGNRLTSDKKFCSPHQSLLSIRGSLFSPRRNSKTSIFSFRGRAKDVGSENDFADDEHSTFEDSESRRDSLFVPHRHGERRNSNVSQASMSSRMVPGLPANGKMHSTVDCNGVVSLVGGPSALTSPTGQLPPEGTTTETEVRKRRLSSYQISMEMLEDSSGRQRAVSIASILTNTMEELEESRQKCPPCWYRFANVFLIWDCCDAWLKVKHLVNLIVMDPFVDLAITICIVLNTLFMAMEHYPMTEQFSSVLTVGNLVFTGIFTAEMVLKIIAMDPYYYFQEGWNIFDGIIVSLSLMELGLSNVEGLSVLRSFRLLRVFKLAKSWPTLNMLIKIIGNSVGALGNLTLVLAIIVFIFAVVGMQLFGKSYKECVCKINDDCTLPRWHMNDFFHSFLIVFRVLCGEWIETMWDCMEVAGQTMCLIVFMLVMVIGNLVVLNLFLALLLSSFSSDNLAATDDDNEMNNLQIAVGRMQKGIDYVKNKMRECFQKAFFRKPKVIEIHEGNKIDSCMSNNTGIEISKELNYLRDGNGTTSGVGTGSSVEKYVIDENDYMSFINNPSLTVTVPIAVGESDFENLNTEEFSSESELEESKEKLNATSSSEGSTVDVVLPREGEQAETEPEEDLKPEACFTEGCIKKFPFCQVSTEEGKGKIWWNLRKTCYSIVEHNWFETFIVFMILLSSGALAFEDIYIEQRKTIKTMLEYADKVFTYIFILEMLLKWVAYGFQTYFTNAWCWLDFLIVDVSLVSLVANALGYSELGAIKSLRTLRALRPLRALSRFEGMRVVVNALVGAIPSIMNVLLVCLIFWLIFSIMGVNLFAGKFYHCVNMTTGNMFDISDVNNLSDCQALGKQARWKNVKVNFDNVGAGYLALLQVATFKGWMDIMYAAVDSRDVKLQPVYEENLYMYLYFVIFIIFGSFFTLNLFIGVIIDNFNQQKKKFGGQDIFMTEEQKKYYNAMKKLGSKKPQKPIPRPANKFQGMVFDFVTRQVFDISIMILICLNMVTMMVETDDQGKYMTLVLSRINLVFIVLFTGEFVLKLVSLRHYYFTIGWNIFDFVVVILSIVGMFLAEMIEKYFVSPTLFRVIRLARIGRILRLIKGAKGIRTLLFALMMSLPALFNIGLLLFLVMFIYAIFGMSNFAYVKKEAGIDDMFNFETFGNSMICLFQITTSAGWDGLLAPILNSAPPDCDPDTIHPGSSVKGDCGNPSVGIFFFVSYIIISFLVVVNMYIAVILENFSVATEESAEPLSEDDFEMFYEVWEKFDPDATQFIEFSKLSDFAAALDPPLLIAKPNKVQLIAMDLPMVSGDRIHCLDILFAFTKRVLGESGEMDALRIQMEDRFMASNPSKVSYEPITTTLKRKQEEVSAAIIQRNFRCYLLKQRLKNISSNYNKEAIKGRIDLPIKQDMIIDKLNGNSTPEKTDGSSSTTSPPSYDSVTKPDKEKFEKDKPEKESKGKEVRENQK
Text: as §1

Series [4] addresses Nav1.5 (Homo sapiens, UniProt Q14524). The series is described as follows: Sodium channel selectivity test, patch-clamp, Nav1.5. The series is classed as cell-based. To be noted: read-out: Nav1.5 Inhibition rate (%).
Text: as §1

Series [5] concerns the target Nav1.7 (Homo sapiens, UniProt Q15858). The series is described as follows: Sodium channel selectivity test, patch-clamp, Nav1.7. To be noted: read-out: Nav1.7 Inhibition rate (%). Format: cell-based.
Text: as §1

In series [6] the target is Nav1.6 (Homo sapiens, UniProt Q9UQD0). The series is described as follows: Sodium channel selectivity test, patch-clamp, Nav1.6. The series is classed as cell-based. To be noted: read-out: Nav1.6 Inhibition rate (%).
Sequence of Nav1.6 (Q9UQD0 whole entry): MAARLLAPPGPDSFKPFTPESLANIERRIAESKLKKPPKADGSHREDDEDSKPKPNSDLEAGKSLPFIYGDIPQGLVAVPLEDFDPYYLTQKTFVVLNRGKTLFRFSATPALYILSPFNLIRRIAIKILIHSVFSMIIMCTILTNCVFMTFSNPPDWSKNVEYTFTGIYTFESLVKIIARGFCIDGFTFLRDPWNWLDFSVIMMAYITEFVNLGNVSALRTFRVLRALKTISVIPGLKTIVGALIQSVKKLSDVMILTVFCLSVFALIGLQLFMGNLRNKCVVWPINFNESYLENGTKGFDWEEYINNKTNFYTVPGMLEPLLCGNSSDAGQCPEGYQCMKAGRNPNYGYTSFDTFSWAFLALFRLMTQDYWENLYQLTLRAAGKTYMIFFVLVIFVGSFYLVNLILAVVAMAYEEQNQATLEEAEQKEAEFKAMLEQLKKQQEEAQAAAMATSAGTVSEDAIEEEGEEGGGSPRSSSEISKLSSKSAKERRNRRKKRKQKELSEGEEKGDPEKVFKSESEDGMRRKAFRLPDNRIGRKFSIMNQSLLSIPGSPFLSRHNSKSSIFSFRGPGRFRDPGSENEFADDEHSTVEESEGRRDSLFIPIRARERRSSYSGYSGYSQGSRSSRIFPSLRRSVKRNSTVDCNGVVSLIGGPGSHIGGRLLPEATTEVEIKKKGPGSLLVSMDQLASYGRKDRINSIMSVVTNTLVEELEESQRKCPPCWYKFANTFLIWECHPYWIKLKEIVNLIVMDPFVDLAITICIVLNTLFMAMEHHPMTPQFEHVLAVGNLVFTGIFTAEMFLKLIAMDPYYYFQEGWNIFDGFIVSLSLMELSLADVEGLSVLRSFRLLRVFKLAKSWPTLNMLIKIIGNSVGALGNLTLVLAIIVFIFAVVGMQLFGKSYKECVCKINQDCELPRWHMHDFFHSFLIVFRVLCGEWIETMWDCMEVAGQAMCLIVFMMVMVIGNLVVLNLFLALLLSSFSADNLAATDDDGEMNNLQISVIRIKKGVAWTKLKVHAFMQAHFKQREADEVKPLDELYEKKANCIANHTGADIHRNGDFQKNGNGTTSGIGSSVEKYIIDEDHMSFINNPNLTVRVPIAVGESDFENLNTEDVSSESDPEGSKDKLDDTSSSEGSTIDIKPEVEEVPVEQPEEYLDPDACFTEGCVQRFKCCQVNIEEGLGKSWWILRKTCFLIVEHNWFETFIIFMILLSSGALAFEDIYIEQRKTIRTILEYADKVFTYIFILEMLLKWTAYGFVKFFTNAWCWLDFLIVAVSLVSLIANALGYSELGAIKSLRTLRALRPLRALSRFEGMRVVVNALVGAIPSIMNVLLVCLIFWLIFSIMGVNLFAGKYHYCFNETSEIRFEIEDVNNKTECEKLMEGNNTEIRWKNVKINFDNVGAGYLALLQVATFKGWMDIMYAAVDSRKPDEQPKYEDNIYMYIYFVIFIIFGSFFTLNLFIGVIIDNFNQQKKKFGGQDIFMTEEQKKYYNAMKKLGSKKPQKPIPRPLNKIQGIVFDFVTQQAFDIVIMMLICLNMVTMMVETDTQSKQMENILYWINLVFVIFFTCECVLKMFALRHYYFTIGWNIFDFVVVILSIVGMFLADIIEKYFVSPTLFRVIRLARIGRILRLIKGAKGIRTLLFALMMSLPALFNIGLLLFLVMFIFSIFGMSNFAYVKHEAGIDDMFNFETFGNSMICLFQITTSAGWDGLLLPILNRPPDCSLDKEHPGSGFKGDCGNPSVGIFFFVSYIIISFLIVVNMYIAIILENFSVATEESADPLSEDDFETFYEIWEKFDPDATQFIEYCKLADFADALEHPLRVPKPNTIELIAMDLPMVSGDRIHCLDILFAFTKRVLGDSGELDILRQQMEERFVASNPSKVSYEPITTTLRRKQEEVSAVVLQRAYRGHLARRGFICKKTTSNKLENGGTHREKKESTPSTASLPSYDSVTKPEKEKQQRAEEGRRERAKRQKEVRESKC
Text: as §1

Read-outs that look alike come from different tables or passages of the source.

In the case of `COc1c([C@H]2[C@H](C(=O)Nc3ccnc(C(N)=O)c3)O[C@@](C)(C(F)(F)F)[C@H]2C)ccc(F)c1F` [Reference compound, reference compound], the AUC(0-t) in series [1] (male, read-out: Area under the curve AUC0-t) worked out at 608 ± 362 ng·h/mL. For the same compound, the half-life in series [1] (male) was 79.2 ± 10.2 min. Further, in series [1] (male), the Cmax stood at 216 ± 124 ng/mL. Besides, in series [1] (male), the Tmax came out at 37.8 ± 15 min. In addition, the inhibition at 30 µM in series [2] is 57.7%; in series [3], 63.4%; in series [4] (human) it was 72.2%; in series [5], 11.1%; in series [6], 42.9%.

For `COCCOc1c([C@H]2[C@H](C(=O)Nc3ccc(F)c(C(=N)NO)c3)O[C@@](C)(C(F)(F)F)[C@H]2C)ccc(F)c1F` [Example 10], the AUC(0-t) at 24 h in series [1] (in vivo, read-out: Area under the curve AUC0-t) came to 4650 ± 1600 ng·h/mL. The half-life in series [1] (in vivo) was 96 ± 16.2 min. Besides, in series [1] (in vivo), the Cmax came out at 1240 ± 326 ng/mL. Also, the Tmax in series [1] (in vivo) came out at 52.8 ± 15 min. For the same compound, the inhibition at 30 µM in series [2] was determined as 28.4%; in series [3], 28.6%; in series [4] (human, cho/hek293 cells) it was 51.7%; in series [5], 20.8%; in series [6], 36%.

On to `C[C@H]1[C@@H](c2ccc(F)c(F)c2OC2COC2)[C@H](C(=O)Nc2ccc(F)c(C(=N)NO)c2)O[C@@]1(C)C(F)(F)F` [Example 11], for which, in series [1] (read-out: Area under the curve AUC0-t), the AUC(0-t) amounted to 2080 ± 201 ng·h/mL. Also, the half-life in series [1] is 51 ± 4.2 min. Besides, in series [1], the Cmax was 1040 ± 260 ng/mL. Moreover, the Tmax in series [1] was 45 ± 30 min. The inhibition at 30 µM in series [2] is 1.96%; in series [3] it was 21.7%; in series [4] (cho/hek293 cells), 9.11%; in series [5], 14.8%; in series [6], 19.5%.
